Drawing on PubChem BioAssay AID1671294, this text covers IC50 for one molecule.

This assay has as its target Homeodomain-interacting protein kinase 3 (Homo sapiens) (UniProt Q9H422). The assay can be described thus: HIPK3 kinase inhibitors, dose response, biochemical, Z'-LYTE, FRET, protease-coupled, direct format (AID 1671294). Conditions: Z'-LYTE FRET kinase activity, recombinant HIPK3.

Sequence of Homeodomain-interacting protein kinase 3 (Homo sapiens) (Q9H422 whole entry, looked up): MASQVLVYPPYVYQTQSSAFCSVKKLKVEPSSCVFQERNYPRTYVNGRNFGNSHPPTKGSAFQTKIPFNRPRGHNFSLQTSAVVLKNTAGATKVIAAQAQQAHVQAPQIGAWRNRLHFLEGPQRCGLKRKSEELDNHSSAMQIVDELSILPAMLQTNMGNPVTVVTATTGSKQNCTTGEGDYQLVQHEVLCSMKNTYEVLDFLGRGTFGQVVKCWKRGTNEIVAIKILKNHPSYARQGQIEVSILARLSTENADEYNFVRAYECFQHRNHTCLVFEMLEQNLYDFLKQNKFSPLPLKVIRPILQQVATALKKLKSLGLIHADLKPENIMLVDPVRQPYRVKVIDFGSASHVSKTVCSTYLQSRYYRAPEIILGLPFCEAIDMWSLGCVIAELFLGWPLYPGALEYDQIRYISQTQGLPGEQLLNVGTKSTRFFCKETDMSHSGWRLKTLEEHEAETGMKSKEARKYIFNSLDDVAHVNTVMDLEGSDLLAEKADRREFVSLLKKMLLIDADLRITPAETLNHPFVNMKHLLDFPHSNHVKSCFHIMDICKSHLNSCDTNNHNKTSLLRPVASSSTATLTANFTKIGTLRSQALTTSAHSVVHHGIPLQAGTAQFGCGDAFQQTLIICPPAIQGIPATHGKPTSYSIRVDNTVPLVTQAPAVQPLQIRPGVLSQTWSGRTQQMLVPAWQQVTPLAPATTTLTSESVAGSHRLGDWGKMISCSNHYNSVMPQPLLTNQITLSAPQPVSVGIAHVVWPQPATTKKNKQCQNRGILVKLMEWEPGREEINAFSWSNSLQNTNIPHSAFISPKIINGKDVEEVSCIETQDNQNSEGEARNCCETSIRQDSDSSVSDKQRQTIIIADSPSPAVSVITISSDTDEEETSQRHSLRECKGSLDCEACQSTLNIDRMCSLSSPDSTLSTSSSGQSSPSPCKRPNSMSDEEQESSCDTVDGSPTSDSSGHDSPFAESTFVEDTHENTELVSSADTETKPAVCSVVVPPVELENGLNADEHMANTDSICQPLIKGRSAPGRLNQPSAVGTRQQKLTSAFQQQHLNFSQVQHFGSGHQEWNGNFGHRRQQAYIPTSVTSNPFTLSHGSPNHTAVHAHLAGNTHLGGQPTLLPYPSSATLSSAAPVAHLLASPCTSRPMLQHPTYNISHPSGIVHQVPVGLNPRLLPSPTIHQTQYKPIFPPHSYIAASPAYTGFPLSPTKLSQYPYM

As to `Brc1c(Br)c(Br)c2n[nH]nc2c1Br`, the IC50 (in general, the midpoint of a concentration-inhibition curve) was 5.1 µM.
